Structures can show the parent of a compound that is named as a salt.
Biological target: T1, human platelet PDE-V (Homo sapiens, UniProt O76074)
T1 construct: Human platelet cGMP-PDE was separated from other isozymes in human platelets; from tissue; host or cells: human platelets
Test: cGMP-Phosphodiesterase (PDE) assay, enzymatic inhibitory test
Type: biochemical
Settings: not given
Experimental: cGMP-Phosphodiesterase (PDE) Assay
Human platelet cGMP-PDE was separated from other isozymes in human platelets by a modification of the method of Thompson et. al. (see Cyclic Nucleotide Phosphodiesterase (PDE), in Methods of Enzymatic analysis, Vol 4, p127-234, 1984). In enzyme inhibition assays, the test compounds were dissolved in DMSO and then diluted with assay buffer (50 mM Tris-HCl, 0.077 mg/ml dithiothreitol and 10 mg/ml snake venom, 1 mM EGTA, pH 8.0), at final concentrations ranging from 10^−10 to 10^−6 M. Assays were performed at 0.1 μM substrate ([^3H]-cGMP) concentration, at 30° C. for 10 minutes using enzyme dilutions which gave 10-20% hydrolysis of substrate. Each assay was initiated by addition of substrate and terminated by addition of anion exchange resin (Dowex® 1-X8, 250 mg/mg) followed by centrifugation for 10 minutes (3000 rpm, at 4° C.). Radioactivity of supernatant (^3H-GMP) was assayed by liquid scintillation counting.

SMILES | IC50 [µM]
O=C(NCc1ccc([N+](=O)[O-])cc1)c1cc([N+](=O)[O-])ccc1NC1CCCC1 [2-(Cyclopentylamino)-5-nitro-N-(4-nitrobenzyl)benzamide] | < 0.01
O=C(NCc1ccc2c(c1)OCO2)c1cc([N+](=O)[O-])ccc1NC(CCl)CCl [2-[2-Chloro-1-(chloromethyl)ethylamino]-5-nitro-N-(1,3-benzodioxol-5-ylmethyl)benzamide] | < 0.01

Same assay, conditions: human platelet PDE-V; 0.1 μM [3H]-cGMP substrate, 30° C., 10 minutes; read-out: Inhibitory activity IC50

SMILES | IC50 [µM]
O=C(NCc1ccccc1)c1cc([N+](=O)[O-])ccc1N[C@@H]1CCC[C@H]1O (relative stereo) [N-Benzyl-2-(trans-2-hydroxycyclopentylamino)-5-nitrobenzamide] | < 0.01
O=C(NCc1ccc2c(c1)OCO2)c1cc([N+](=O)[O-])ccc1NC1CCS(=O)(=O)CC1 [2-(1,1-dioxotetrahydro-2H-thiopyran-4-ylamino)-5-nitro-N-(1,3-benzodioxol-5-ylmethyl)benzamide] | < 0.01
COc1ccc(CNC(=O)c2cc([N+](=O)[O-])ccc2NC2CCN(C(=N)N)CC2)cc1OC [2-(1-Amidinopiperidin-4-ylamino)-N-(3,4-dimethoxybenzyl)-5-nitrobenzamide hydrochloride] | < 0.01
O=C(NCc1ccc2c(c1)OCO2)c1cc([N+](=O)[O-])ccc1NC1CCN(Cc2ccccc2)CC1 [2-(1-Benzylpiperidin-4-ylamino)-5-nitro-N-(1,3-benzodioxol-5-ylmethyl)benzamide] | < 0.01
O=CN1CCC(Nc2ccc([N+](=O)[O-])cc2C(=O)NCc2ccc3c(c2)OCO3)CC1 [2-(1-Formyl-4-piperidinylamino)-5-nitro-N-(1,3-benzodioxol-5-ylmethyl)benzamide] | < 0.01
CC(=O)N1CCC(Nc2ccc([N+](=O)[O-])cc2C(=O)NCc2ccc3c(c2)OCO3)CC1 [2-(1-acetyl-4-piperidinylamino)-5-nitro-N-(1,3-benzodioxol-5-ylmethyl)benzamide] | < 0.01
CN1CCC(Nc2ccc([N+](=O)[O-])cc2C(=O)NCc2ccc3c(c2)OCO3)CC1 [2-(1-methyl-4-piperidinylamino)-5-nitro-N-(1,3-benzodioxol-5-ylmethyl)benzamide] | < 0.01
NC(=O)C1CCC(Nc2ccc([N+](=O)[O-])cc2C(=O)NCc2ccc3c(c2)OCO3)CC1 (centres unmarked) [2-(4-carbamoylcyclohexylamino)-5-nitro-N-(1,3-benzodioxol-5-ylmethyl)benzamide] | < 0.01
O=C(NCc1ccc2c(c1)OCO2)c1cc([N+](=O)[O-])ccc1NC1CCC(C(=O)O)CC1 (centres unmarked) [2-(4-carboxycyclohexylamino)-5-nitro-N-(1,3-benzodioxol-5-ylmethyl)benzamide] | < 0.01
O=C(NCc1cccs1)c1cc([N+](=O)[O-])ccc1NC1CCCC1 [2-(Cyclopentylamino)-5-nitro-N-(2-thienylmethyl)benzamide] | < 0.01
O=C(NCCCc1ccccc1)c1cc([N+](=O)[O-])ccc1NC1CCCC1 [2-(Cyclopentylamino)-5-nitro-N-(3-phenylpropyl)benzamide] | < 0.01
O=C(NCc1ccc(C(F)(F)F)cc1)c1cc([N+](=O)[O-])ccc1NC1CCCC1 [2-(Cyclopentylamino)-5-nitro-N-[4-(trifluoromethyl)benzyl]benzamide] | < 0.01
O=C(NCCc1ccccc1)c1cc([N+](=O)[O-])ccc1NC1CCCC1 [2-(Cyclopentylamino)-5-nitro-N-phenethylbenzamide] | < 0.01
O=C(NCc1ccc(Cl)cc1Cl)c1cc([N+](=O)[O-])ccc1NC1CCCC1 [2-(Cyclopentylamino)-N-(2,4-dichlorobenzyl)-5-nitrobenzamide] | < 0.01
O=C(NCc1ccc(Cl)c(Cl)c1)c1cc([N+](=O)[O-])ccc1NC1CCCC1 [2-(Cyclopentylamino)-N-(3,4-dichlorobenzyl)-5-nitrobenzamide] | < 0.01
O=C(NCc1ccc(F)c(F)c1)c1cc([N+](=O)[O-])ccc1NC1CCCC1 [2-(Cyclopentylamino)-N-(3,4-difluorobenzyl)-5-nitrobenzamide] | < 0.01
O=C(NCc1ccc(F)cc1)c1cc([N+](=O)[O-])ccc1NC1CCCC1 [2-(Cyclopentylamino)-N-(4-fluorobenzyl)-5-nitrobenzamide] | < 0.01
COc1cc(CNC(=O)c2cc([N+](=O)[O-])ccc2NC2CCCC2)ccc1O [2-(Cyclopentylamino)-N-(4-hydroxy-3-methoxybenzyl)-5-nitrobenzamide] | < 0.01
COc1ccc(CNC(=O)c2cc([N+](=O)[O-])ccc2NC2CCCC2)cc1 [2-(Cyclopentylamino)-N-(4-methoxybenzyl)-5-nitrobenzamide] | < 0.01
Cc1ccc(CNC(=O)c2cc([N+](=O)[O-])ccc2NC2CCCC2)cc1 [2-(Cyclopentylamino)-N-(4-methylbenzyl)-5-nitrobenzamide] | < 0.01

SMILES | IC50 [µM]
O=C(NCc1ccco1)c1cc([N+](=O)[O-])ccc1NC1CCCC1 [2-(Cyclopentylamino)-N-furfuryl-5-nitrobenzamide] | < 0.01
CCCCCCNC(=O)c1cc([N+](=O)[O-])ccc1NC1CCCC1 [2-(Cyclopentylamino)-N-hexyl-5-nitrobenzamide] | < 0.01
COc1ccc(CNC(=O)c2cc([N+](=O)[O-])ccc2N[C@H]2CC[C@@H](NC=O)CC2)cc1OC [2-(cis-4-Formamidocyclohexylamino)-N-(3,4-dimethoxybenzyl)-5-nitrobenzamide] | < 0.01
COCCOc1ccc(CNC(=O)c2cc([N+](=O)[O-])ccc2N[C@H]2CC[C@@H](O)CC2)cc1OC [2-(cis-4-Hydroxycyclohexylamino)-N-[3-methoxy-4-(2-methoxyethoxy)benzyl]-5-nitrobenzamide] | < 0.01
O=C(NCc1ccc2c(c1)OCO2)c1cc([N+](=O)[O-])ccc1N[C@H]1CC[C@@H](Cl)CC1 [2-(cis-4-chlorocyclohexylamino)-5-nitro-N-(1,3-benzodioxol-5-ylmethyl)benzamide] | < 0.01
CC(C)(C)Nc1ccc([N+](=O)[O-])cc1C(=O)NCc1ccc2c(c1)OCO2 [2-(tert-Butylamino)-5-nitro-N-(1,3-benzodioxol-5-ylmethyl)benzamide] | < 0.01
CSc1ccc(CNC(=O)c2cc([N+](=O)[O-])ccc2N[C@H]2CC[C@H](O)CC2)cc1 [2-(trans-4-Hydroxycyclohexyl)amino-N-[4-(methylthio)benzy]-5-nitrobenzamide] | < 0.01
CCOC(=O)N1CCC(Nc2ccc([N+](=O)[O-])cc2C(=O)NCc2ccc3c(c2)OCO3)CC1 [2-[1-(Ethoxycarbonyl)piperidin-4-ylamino]-5-nitro-N-(1,3-benzodioxol-5-ylmethyl)benzamide] | < 0.01
O=C(NCc1ccc2c(c1)OCO2)c1cc([N+](=O)[O-])ccc1NC1(CO)CCCC1 [2-[1-(Hydroxymethyl)cyclopentylamino]-5-nitro-N-(1,3-benzodioxol-5-ylmethyl)benzamide] | < 0.01
CC(C)(C)OC(=O)N1CCC(Nc2ccc([N+](=O)[O-])cc2C(=O)NCc2ccc3c(c2)OCO3)CC1 [2-[1-(tert-Butoxycarbonyl)-4-piperidinylamino]-5-nitro-N-(1,3-benzodioxol-5-ylmethyl)benzamide] | < 0.01
COc1ccc(CNC(=O)c2cc([N+](=O)[O-])ccc2NC2CCN(C(=O)OC(C)(C)C)CC2)cc1OC [2-[1-(tert-Butoxycarbonyl)piperidin-4-ylamino]-N-(3,4-dimethoxybenzyl)-5-nitrobenzamide] | < 0.01
COc1ccc(CNC(=O)c2cc([N+](=O)[O-])ccc2NC2CCN(C(=NC(=O)OC(C)(C)C)NC(=O)OC(C)(C)C)CC2)cc1OC [2-[1-[1,3-Bis(tert-butoxycarbonyl)amidino]piperidin-4-ylamino]-N-(3,4-dimethoxybenzyl)-5-nitrobenzamide] | < 0.01
COc1cc(CNC(=O)c2cc([N+](=O)[O-])ccc2NC(CO)CO)ccc1C [2-[2-Hydroxy-1-hydroxymethyl)ethylamino]-N-(3-methoxy-4-methylbenzyl)-5-nitrobenzamide] | < 0.01
O=C(OC1CCC(Nc2ccc([N+](=O)[O-])cc2C(=O)NCc2ccccc2)C1)c1ccccc1 (centres unmarked) [2-[3-(Benzoyloxy)cyclopentylamino]-N-benzyl-5-nitrobenzamide] | < 0.01
COC(=O)C1CCC(Nc2ccc([N+](=O)[O-])cc2C(=O)NCc2ccc3c(c2)OCO3)CC1 (centres unmarked) [2-[4-(Methoxycarbonyl)cyclohexylamino]-5-nitro-N-(1,3-benzodioxol-5-ylmethyl)benzamide] | < 0.01
C[C@@H](O)[C@@H](CO)Nc1ccc([N+](=O)[O-])cc1C(=O)NCc1ccc2c(c1)OCO2 [2-[(1R, 2R)-2-Hydroxy-1-(hydroxymethyl)propylamino]-5-nitro-N-(1,3-benzodioxol-5-ylmethyl)benzamide] | < 0.01
COc1ccc(CNC(=O)c2cc([N+](=O)[O-])ccc2N[C@H](C(N)=O)[C@@H](C)O)cc1OC [2-[(1S, 2R)-1-(Carbamoyl)-2-hydroxypropylamino]-N-(3,4-dimethoxybenzyl)-5-nitrobenzamide] | < 0.01
COc1ccc(CNC(=O)c2cc([N+](=O)[O-])ccc2N[C@H]2CC[C@H](N)CC2)cc1OC [2-[(trans-4-Aminocyclohexyl)amino]-N-(3,4-dimethoxybenzyl)-5-nitrobenzamide] | < 0.01
COc1ccc(CNC(=O)c2cc([N+](=O)[O-])ccc2N[C@H]2CC[C@H](NC(=NC(=O)OC(C)(C)C)NC(=O)OC(C)(C)C)CC2)cc1OC [2-{trans-4-[2,3-bis(tert-butoxycarbonyl)guanidino]cyclohexylamino}-N-(3,4-dimethoxybenzyl)-5-nitrobenzamide] | < 0.01
